Consider twelve compounds from patent US8691865B2 (AbbVie Inc., priority 2008, dated 2014).

The structures appear in SMILES notation.

For one assay, the target named is human Cav2.2 (Homo sapiens, UniProt Q00975). Put plainly: Assessment of calcium channel activity using FLIPR (Ca2+ influx in IMR32 cells). The assay is classed as cell-based. In outline:
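Human neuroblastoma IMR32 cells were seeded at 1−1.2×10^5 cells/well and cultured 48 h at 37 °C before FLIPR calcium influx measurement. Percent inhibition at each concentration was calculated against the no-inhibitor signal, and IC50 came from sigmoidal dose-response fits.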

The test system of assay [1] is Sprague Dawley rats. The assay can be described thus: Capsaicin induced secondary mechanical hyperalgesia model. The format is in vivo. Particulars: po, 1 h, read-out: % inhibition @ 30 mg/kg p.o.; 30 mg/kg p.o. 60 minutes before testing; SMH measured 180 minutes after capsaicin; rat. The protocol: (ii) In Vivo Data—Capsaicin Induced Secondary Mechanical Hyperalgesia Model:
Sprague Dawley rats were briefly restrained, and capsaicin was administered at 10 μg in 10 μL of vehicle by intraplantar injection into the center of the right hind paw. Secondary mechanical hyperalgesia (SMH) was measured at the heel away from the site of injection 180 minutes following capsaicin exposure. Compounds and gabapentin (positive control), were administered p.o. 60 minutes before testing (2 hours after capsaicin) or i.p. 30 minutes before testing (2.5 hours after capsaicin). SMH was measured using calibrated von Frey filaments (Stoelting, Woodale, Ill.). Following the 1 hour habituation in the testing room, rats were moved to individual plexiglass chambers that sit on top of a wire mesh to allow for access for stimulation of the plantar surface of the hind paws. Rats were allowed to acclimate to the new chambers for 15 minutes before the onset of testing. The paw withdrawal threshold was determined by increasing and decreasing stimulus intensity (force: g) and calculated using Dixon's up-down method (Chaplan, S. R.; Bach, F. W.; Pogrel, J. W.; Chung, J. M.; Yaksh, T. L.; J. Neuroscience Methods 1994, 53(1), 55-63.). The filaments (maximum force of 15.0 g) were held in place for 8 seconds or until there was a withdrawal response from the mechanical stimulation.

The test system of assay [2] is Sprague Dawley rats. Put plainly: Analgesic effect against neuropathic pain, Bennett model (chronic constriction injury). Particulars: Rattus norvegicus, 1 h; 30 mg/kg po; mechanical allodynia 60 minutes after administration; CCI rats; read-out: % MPE. The format is in vivo. The protocol: (iii) In Vivo Data—Determination of Analgesic Effect Against Neuropathic Pain—Bennett Model
Animals were prepared for testing, by use of a surgical procedure that induces neuropathic pain in one paw. IACUC guidelines for rodent survival surgery are followed. All surgical procedures are conducted on a clean, uncluttered surgical station. The area is wiped with a 70% ethanol solution before and after use. All instruments are sterilized by either autoclave or chemical sterilant (such as 2% glutaraldehyde >10 hr). Surgeons wear sterile gloves (for the initial procedure), clean lab coat or scrubs, hairnet or cap, and a half-mask respirator (when not working under a hood). Surgeons thoroughly wash their hands prior to donning sterile gloves. Gloves are disinfected in-between animals by cleansing with povidone iodine, chlorhexidine or 70% alcohol for at least 30 seconds. If multiple surgeries are performed, the instruments are cleaned and sterilized between procedures with hot glass beads (>10 seconds). To prevent thermal or chemical burns, the instruments are cooled by rinsing in sterile saline before use.
To minimize post-operative dehydration/maintain blood volume during the surgery, warmed sterile saline or Lactate Ringers solution at 10-15 mL/kg is administered subcutaneously immediately before or after surgery. This facilitates better renal function and presumably anesthesia product excretion post surgery. For all surgical procedures, anesthesia is induced with 4-5% isoflurane. Anesthesia is be maintained during surgery with 1-3% isoflurane. Following induction, the surgical site is carefully shaved and the exposed area is aseptically prepared with povidone-iodine scrub solution and 70% ethanol 2-3 times.
After site sterilization and anesthetic procedures outline above are completed, a 1.5 cm incision is made at the mid-thigh level to expose the biceps femoris and gluteous superficialis (right side), which are then separated by blunt dissection. The common sciatic nerve is exposed, isolated, and loosely ligated by four 5-0 chromic gut ligatures with <1 mm spacing between each. The surgical site is closed in layers—muscle is closed with 6.0 absorbable sutures, and the skin closed with wound clips. Animals are allowed to recover on a warming plate and are returned to their home cages when fully ambulatory. Animals are not be used for testing until at least 10 days following surgery.
Filament strengths used are: 0.4, 0.6, 1.0, 2, 4, 6, 8, and 15 g. […] Filaments are applied perpendicular to the mid-plantar paw surface with enough force to cause slight buckling and held in place for 6-8 seconds. Positive responses include an abrupt withdrawal of the paw from the stimulus or flinching behavior immediately following removal of the stimulus. The maximum force applied will be 15 g. […] All compounds were orally administered in 10% dimethyl sulfoxide/polyethylene glycol at a volume of 2.0 mL/kg, and mechanical allodynia was determined 60 minutes following compound administration. Data are reported as log g values and the percentage of maximum possible effect (% MPE) is calculated using log g values with the formula: % MPE=(log [observed PWT in grams]−log [mean PWT vehicle])/(log [15]−log [mean PWT vehicle])*100 All statistical procedures are run on log g values.

Chain of human Cav2.2 (Q00975 whole entry): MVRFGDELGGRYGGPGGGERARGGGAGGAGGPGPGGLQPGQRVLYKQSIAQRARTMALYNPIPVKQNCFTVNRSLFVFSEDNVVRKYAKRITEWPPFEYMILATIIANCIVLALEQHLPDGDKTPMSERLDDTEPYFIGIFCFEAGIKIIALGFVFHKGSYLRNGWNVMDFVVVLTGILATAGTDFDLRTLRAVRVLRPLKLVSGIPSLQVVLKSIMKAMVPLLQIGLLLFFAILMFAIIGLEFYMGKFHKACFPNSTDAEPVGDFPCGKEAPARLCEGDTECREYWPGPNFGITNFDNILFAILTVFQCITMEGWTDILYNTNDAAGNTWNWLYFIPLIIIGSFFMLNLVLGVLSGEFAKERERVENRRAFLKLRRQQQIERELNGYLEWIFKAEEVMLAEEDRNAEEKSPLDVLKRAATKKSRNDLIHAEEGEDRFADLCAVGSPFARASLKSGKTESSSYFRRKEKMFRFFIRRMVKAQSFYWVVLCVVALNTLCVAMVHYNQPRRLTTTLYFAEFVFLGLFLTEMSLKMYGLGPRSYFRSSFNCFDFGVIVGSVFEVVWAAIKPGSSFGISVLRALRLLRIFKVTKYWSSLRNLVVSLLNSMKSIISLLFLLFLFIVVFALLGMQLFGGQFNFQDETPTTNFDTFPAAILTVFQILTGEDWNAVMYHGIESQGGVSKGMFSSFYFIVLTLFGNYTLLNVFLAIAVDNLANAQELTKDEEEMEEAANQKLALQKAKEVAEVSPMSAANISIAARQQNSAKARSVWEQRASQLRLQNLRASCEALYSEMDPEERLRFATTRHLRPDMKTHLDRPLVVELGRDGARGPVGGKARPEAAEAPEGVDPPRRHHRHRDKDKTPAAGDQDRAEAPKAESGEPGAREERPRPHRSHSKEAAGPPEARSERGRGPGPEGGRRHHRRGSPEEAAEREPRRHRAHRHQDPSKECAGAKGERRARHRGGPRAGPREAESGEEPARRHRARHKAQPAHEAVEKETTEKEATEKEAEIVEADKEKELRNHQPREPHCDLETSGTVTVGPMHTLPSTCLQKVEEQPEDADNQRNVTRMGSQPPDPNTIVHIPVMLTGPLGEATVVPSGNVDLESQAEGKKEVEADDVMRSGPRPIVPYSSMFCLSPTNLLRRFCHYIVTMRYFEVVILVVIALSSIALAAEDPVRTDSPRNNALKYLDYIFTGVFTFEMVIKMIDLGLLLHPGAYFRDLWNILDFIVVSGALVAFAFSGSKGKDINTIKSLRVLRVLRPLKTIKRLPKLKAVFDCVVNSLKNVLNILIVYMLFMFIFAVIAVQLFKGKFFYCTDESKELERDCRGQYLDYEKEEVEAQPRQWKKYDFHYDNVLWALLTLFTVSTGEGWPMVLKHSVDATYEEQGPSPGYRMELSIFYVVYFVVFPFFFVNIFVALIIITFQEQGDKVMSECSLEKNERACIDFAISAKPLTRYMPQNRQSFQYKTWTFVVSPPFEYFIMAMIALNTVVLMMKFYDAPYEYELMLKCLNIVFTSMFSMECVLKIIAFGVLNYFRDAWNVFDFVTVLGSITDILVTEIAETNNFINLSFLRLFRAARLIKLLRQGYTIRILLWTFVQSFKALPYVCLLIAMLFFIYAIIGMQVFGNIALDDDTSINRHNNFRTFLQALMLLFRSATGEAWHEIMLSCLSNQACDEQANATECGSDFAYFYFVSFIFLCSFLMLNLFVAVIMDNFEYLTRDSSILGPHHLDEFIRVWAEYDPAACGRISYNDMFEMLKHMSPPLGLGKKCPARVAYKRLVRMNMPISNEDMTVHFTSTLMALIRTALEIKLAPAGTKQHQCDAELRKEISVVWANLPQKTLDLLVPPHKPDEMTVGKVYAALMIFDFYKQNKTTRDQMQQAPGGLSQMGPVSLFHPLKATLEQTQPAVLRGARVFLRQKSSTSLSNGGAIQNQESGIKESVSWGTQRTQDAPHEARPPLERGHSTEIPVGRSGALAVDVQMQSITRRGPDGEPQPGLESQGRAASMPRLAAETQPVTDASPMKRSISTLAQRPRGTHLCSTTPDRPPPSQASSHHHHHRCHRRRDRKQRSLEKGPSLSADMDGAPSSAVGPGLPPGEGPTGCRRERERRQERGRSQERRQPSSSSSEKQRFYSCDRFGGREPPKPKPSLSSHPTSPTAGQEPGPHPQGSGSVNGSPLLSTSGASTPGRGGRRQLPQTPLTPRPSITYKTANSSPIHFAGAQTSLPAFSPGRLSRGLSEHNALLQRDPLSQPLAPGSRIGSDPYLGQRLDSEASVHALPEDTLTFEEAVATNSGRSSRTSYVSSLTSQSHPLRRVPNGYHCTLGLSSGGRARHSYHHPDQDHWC
Chain of human Cav2.2 (P54289 25-956 partner limits assumed): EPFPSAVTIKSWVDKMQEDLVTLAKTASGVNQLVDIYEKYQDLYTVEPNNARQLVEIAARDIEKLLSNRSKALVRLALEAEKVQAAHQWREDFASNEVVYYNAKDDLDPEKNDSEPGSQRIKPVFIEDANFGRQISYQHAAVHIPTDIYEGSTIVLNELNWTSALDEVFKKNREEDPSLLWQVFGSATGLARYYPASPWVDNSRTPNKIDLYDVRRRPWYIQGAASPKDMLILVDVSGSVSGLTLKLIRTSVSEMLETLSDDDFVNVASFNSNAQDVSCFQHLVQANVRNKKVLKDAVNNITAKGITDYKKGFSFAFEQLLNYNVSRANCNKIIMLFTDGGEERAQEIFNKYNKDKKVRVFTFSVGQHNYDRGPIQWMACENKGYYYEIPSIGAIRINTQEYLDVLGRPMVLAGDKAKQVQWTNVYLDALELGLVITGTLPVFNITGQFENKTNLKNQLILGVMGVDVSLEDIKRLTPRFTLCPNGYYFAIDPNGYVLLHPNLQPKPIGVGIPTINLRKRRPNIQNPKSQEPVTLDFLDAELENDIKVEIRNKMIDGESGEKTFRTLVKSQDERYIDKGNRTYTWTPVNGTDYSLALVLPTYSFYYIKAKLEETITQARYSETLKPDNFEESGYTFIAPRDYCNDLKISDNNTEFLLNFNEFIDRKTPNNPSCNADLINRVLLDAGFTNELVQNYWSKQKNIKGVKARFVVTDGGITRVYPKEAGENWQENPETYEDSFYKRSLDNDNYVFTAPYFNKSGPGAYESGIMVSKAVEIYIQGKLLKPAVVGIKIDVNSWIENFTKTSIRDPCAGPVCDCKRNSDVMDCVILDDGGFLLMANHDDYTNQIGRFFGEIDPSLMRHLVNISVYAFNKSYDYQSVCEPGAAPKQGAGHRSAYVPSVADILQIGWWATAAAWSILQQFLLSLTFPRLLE
Chain of human Cav2.2 (P54289 957-1103 partner limits assumed): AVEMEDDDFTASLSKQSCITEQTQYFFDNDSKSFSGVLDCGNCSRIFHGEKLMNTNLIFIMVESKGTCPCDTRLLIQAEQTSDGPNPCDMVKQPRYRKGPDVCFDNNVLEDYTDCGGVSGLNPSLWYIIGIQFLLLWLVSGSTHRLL
Chain of human Cav2.2 (P54284 whole entry partner): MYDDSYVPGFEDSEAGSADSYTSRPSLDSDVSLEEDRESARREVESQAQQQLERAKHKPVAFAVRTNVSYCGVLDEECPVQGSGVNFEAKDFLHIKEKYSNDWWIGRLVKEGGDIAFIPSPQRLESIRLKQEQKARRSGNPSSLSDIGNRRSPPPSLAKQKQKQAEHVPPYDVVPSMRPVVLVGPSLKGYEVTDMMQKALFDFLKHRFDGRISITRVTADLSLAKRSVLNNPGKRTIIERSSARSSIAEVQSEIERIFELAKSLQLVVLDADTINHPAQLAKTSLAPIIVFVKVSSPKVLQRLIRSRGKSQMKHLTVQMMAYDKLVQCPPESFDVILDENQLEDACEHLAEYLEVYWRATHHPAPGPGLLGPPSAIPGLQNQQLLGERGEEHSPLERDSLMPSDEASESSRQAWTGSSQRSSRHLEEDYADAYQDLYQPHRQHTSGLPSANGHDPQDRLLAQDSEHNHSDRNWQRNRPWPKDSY

Take `CN[C@@H](CC(C)(C)C)C(=O)N1C[C@H]2CC[C@H](NC(=O)C(c3ccc(F)cc3)c3ccc(F)cc3)[C@H]2C1` [Example 461, N-[(3aR,4S,6aS)-2-(N,4-dimethyl-L-leucyl)octahydrocyclopenta[c]pyrrol-4-yl]-2,2-bis(4-fluorophenyl)acetamide]: the IC50 on human Cav2.2 came to 1460 nM. The inhibition in vivo at 30 mg/kg with Sprague Dawley rats [1] was determined as 43%.

In the case of `O=C(N[C@H]1CC[C@@H]2CN(c3cccc(C(F)(F)F)n3)C[C@@H]21)C1(O)CCCC1` [Example 573, 1-hydroxy-N-{(3aR,4S,6aS)-2-[6-(trifluoromethyl)pyridin-2-yl]octahydrocyclopenta[c]pyrrol-4-yl}cyclopentanecarboxamide], the IC50 on human Cav2.2 worked out at 1680 nM. Besides, the inhibition in vivo at 30 mg/kg with Sprague Dawley rats [1] was determined as 57%.

Turning to `CN[C@@H](CC(C)(C)C)C(=O)N[C@H]1CC[C@@H]2CN(c3cccc(C(F)(F)F)n3)C[C@@H]21` [Example 587, N^2,4-dimethyl-N-{(3aR,4S,6aS)-2-[6-(trifluoromethyl)pyridin-2-yl]octahydrocyclopenta[c]pyrrol-4-yl}-L-leucinamide], at human Cav2.2, the concentration for half-maximal inhibition (IC50) is 390 nM. Moreover, in the assay with Sprague Dawley rats [1], the inhibition in vivo at 30 mg/kg is 16%.

As for `O=C(N[C@H]1CC[C@@H]2CN(c3cccc(C(F)(F)F)n3)C[C@@H]21)[C@@H]1C[C@@H](F)CN1` [Example 592, (4R)-4-fluoro-N-{(3aR,4S,6aS)-2-[6-(trifluoromethyl)pyridin-2-yl]octahydrocyclopenta[c]pyrrol-4-yl}-L-prolinamide], the IC50 on human Cav2.2 amounted to 4500 nM. In the assay on Sprague Dawley rats [1], the inhibition in vivo at 30 mg/kg amounted to 54%.

Take `O=C(N[C@H]1CC[C@@H]2CN(c3cccc(C(F)(F)F)n3)C[C@@H]21)[C@@H]1C[C@@H]2CCCC[C@@H]2N1` [Example 593, (2S,3aS,7aS)-N-{(3aR,4S,6aS)-2-[6-(trifluoromethyl)pyridin-2-yl]octahydrocyclopenta[c]pyrrol-4-yl}octahydro-1H-indole-2-carboxamide]: at human Cav2.2, the IC50 was found to be 520 nM. Also, in the assay on Sprague Dawley rats [1], the inhibition in vivo at 30 mg/kg came to 76%.

With `O=C(N[C@H]1CC[C@@H]2CN(c3cccc(C(F)(F)F)n3)C[C@@H]21)[C@@H]1CCCCN1` [Example 597, (2S)-N-{(3aR,4S,6aS)-2-[6-(trifluoromethyl)pyridin-2-yl]octahydrocyclopenta[c]pyrrol-4-yl}piperidine-2-carboxamide], the IC50 on human Cav2.2 stood at 1300 nM. In the assay with Sprague Dawley rats [1], the inhibition in vivo at 30 mg/kg amounted to 54%.

On to `O=C(N[C@H]1CC[C@@H]2CN(c3cccc(C(F)(F)F)n3)C[C@@H]21)[C@@H]1CCCN1` [Example 598, N-{(3aR,4S,6aS)-2-[6-(trifluoromethyl)pyridin-2-yl]octahydrocyclopenta[c]pyrrol-4-yl}-L-prolinamide], for which, at human Cav2.2, the concentration for half-maximal inhibition (IC50) stood at 2570 nM. In addition, the inhibition in vivo at 30 mg/kg in the assay with Sprague Dawley rats [1] is 54%.

For the compound `CCC[C@H](NC)C(=O)N[C@H]1CC[C@@H]2CN(c3ccc(C(F)(F)F)cn3)C[C@@H]21` [Example 599, N^2-methyl-N-{(3aR,4S,6aS)-2-[5-(trifluoromethyl)pyridin-2-yl]octahydrocyclopenta[c]pyrrol-4-yl}-L-norvalinamide], the IC50 on human Cav2.2 came to 4430 nM. Also, the inhibition in vivo at 30 mg/kg in the assay on Sprague Dawley rats [1] turned out to be 32%.

Consider `CN[C@@H](CC(C)C)C(=O)N[C@H]1CC[C@@H]2CN(c3ccc(C(F)(F)F)cn3)C[C@@H]21` [Example 600, N^2-methyl-N-{(3aR,4S,6aS)-2-[5-(trifluoromethyl)pyridin-2-yl]octahydrocyclopenta[c]pyrrol-4-yl}-L-leucinamide], for which, at human Cav2.2, the IC50 is 2860 nM. Moreover, the figures for the inhibition in vivo at 30 mg/kg with Sprague Dawley rats [1] and in the assay with Sprague Dawley rats [2] were 63% and 40%, respectively.

As for `CN[C@@H](CC(C)C)C(=O)N[C@H]1CC[C@@H]2CN(c3cccc(C(F)F)c3)C[C@@H]21` [Example 729, N-{(3aR,4S,6aS)-2-[3-(difluoromethyl)phenyl]octahydrocyclopenta[c]pyrrol-4-yl}-N^2-methyl-L-leucinamide], the half-inhibitory concentration (IC50) at human Cav2.2 was 1080 nM. Moreover, the inhibition in vivo at 30 mg/kg with Sprague Dawley rats [2] amounted to 85%.

For `CN[C@@H](CC(C)C)C(=O)N[C@H]1CC[C@@H]2CN(c3ccc(C(F)(F)F)nc3)C[C@@H]21` [Example 735, N^2-methyl-N-{(3aR,4S,6aS)-2-[6-(trifluoromethyl)pyridin-3-yl]octahydrocyclopenta[c]pyrrol-4-yl}-L-leucinamide], the IC50 on human Cav2.2 turned out to be 3620 nM. The inhibition in vivo at 30 mg/kg in the assay on Sprague Dawley rats [2] was 60%.

Consider `CN[C@@H](CC(C)C)C(=O)N[C@@H]1CC[C@H]2CN(c3ccc(OC(F)(F)F)cc3)C[C@H]21` [Example 739, N^2-methyl-N-{(3aS,4R,6aR)-2-[4-(trifluoromethoxy)phenyl]octahydrocyclopenta[c]pyrrol-4-yl}-L-leucinamide], for which, at human Cav2.2, the IC50 was found to be 2850 nM. Further, in the assay with Sprague Dawley rats [2], the inhibition in vivo at 30 mg/kg turned out to be 63%.

By IC50 is commonly meant the concentration that gives 50% inhibition.
